{"source": "patent US9364479B2", "about": "“Use of a receptor-type kinase modulator for treating polycystic kidney disease” (SYMPHONY EVOLUTION, INC., priority 2010, dated 2016)", "key": {"PCK rat": {"tested_on": "PCK rat", "type": "in vivo", "conditions": "for CT-CI / Creatinine / Kidney/Body weight: PN Day 90", "source_text": "The phenotype of the PCK rat is different from that of humans in that it has a slower disease progression and slower decline in renal function. The PCK rats came from a mutated colony of Sprague-Dawley rats from Fujita Health University and were housed at the Medical College of Wisconsin.\nTwo hours after last injection on PN90 the rats were sacrificed and the kidneys and liver were removed and weighed. Post-mortem measurements included KW/BW ratio and cystic index (CI) using renal sections from the cortex, medulla, and papilla. CT-CI was then determined from cystic index which was based on renal cyst size at 15 day intervals from PN0 to PN135. Renal function was assessed with BUN and creatinine levels from cardiac puncture."}, "Calcium Channel, Type N": {"biological_target": "T1, Calcium Channel, Type N (Homo sapiens, UniProt Q00975)", "T1 construct": "NovaScreen", "T1 sequence (Q00975 whole entry)": "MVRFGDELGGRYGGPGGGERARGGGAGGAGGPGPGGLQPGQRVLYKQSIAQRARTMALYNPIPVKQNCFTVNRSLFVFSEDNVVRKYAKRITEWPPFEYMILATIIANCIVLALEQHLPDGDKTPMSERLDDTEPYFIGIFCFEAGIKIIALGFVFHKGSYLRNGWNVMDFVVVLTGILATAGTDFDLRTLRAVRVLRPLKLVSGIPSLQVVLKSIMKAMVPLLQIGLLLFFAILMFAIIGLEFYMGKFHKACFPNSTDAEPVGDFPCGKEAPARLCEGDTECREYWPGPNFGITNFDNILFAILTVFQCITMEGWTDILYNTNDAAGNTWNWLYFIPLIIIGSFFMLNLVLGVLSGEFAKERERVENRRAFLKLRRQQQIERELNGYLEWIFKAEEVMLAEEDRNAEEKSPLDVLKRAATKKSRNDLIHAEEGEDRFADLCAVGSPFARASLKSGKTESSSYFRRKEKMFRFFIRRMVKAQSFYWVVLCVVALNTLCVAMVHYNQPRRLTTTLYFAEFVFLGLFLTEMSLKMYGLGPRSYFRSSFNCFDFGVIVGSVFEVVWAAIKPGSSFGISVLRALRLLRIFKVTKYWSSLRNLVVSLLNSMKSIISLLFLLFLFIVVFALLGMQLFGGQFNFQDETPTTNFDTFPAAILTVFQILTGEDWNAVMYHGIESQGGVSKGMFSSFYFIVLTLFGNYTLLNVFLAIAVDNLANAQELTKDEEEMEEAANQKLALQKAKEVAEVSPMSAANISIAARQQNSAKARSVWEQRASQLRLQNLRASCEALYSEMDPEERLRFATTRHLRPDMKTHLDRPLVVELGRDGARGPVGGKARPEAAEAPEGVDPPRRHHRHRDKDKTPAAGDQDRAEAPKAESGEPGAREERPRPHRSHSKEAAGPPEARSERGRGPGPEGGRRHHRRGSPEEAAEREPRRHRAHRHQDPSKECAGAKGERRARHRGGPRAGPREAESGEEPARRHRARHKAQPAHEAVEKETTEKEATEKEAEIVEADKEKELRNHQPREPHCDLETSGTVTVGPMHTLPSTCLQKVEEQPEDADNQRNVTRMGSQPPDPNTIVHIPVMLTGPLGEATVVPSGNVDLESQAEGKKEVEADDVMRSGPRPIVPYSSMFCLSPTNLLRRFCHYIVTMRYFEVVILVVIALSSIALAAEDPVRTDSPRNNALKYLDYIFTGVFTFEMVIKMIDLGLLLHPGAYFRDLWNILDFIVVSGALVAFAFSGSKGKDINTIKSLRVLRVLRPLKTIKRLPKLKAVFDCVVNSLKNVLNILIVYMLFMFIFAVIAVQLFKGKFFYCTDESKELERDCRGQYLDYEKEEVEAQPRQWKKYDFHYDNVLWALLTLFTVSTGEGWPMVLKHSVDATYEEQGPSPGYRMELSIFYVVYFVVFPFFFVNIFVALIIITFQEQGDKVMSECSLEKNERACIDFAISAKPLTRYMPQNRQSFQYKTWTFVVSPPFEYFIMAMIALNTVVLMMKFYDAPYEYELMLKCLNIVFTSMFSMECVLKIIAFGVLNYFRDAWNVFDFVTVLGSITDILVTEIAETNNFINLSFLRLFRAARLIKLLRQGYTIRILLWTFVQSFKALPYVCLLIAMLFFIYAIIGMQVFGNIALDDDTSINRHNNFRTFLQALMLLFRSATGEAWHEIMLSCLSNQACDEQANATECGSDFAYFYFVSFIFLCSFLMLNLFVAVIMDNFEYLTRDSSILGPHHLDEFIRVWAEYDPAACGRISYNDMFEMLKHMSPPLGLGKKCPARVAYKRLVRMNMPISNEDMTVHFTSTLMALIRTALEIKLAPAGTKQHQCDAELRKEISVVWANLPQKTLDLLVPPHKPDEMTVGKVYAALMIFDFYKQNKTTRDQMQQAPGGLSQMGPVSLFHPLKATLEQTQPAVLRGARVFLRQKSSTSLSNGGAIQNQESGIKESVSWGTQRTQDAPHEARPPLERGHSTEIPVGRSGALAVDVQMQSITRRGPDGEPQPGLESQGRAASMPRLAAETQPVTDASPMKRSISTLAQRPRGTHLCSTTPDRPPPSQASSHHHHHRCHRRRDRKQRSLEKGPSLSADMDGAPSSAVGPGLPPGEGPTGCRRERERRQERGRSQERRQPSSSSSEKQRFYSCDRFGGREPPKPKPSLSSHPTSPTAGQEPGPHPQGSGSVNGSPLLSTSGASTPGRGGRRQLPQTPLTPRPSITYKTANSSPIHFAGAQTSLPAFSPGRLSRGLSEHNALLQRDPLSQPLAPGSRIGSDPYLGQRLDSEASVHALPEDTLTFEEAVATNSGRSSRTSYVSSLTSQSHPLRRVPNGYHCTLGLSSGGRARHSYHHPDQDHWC", "assay": "NovaScreen assay", "type": "binding", "conditions": "read-out: Inhibition, 10 μM XL-647"}, "[1]": {"biological_target": "T2, Thyrotropin Releasing Hormone, TRH (Homo sapiens, UniProt P34981)", "T2 construct": "NovaScreen", "T2 sequence (P34981 whole entry)": "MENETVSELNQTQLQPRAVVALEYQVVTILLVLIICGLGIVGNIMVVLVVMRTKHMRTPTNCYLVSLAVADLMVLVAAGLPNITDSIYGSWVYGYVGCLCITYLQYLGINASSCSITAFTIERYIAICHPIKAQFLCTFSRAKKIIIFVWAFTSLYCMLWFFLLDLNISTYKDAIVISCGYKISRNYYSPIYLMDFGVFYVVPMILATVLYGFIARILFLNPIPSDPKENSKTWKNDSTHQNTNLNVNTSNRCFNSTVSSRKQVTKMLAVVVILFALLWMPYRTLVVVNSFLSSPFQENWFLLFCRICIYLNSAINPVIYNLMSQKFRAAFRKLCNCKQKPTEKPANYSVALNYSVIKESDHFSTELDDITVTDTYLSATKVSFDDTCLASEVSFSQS", "assay": "NovaScreen assay", "type": "binding", "conditions": "read-out: Inhibition, 10 μM XL-647"}, "EphA2": {"biological_target": "T3, EphA2 (Homo sapiens, UniProt P29317)", "T3 construct": "Human, N598-; mM MgCl2, 3 mM MnCl2,; R890, N-His6; His6 (N)", "T3 sequence (P29317 598-890)": "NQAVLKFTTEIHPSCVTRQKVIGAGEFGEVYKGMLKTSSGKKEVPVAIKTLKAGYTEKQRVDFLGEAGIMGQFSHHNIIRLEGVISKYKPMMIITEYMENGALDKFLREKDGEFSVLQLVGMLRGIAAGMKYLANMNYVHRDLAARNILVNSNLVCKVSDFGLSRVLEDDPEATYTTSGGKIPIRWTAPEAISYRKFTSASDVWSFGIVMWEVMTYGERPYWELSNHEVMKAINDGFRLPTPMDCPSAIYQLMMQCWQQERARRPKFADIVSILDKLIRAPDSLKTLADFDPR", "assay": "Chemiluminescent kinase assay", "type": "biochemical"}, "Flt1": {"biological_target": "Flt1 (Homo sapiens, UniProt P17948)", "assay": "Radiometric kinase assay", "type": "biochemical", "procedure": "(§1) A radiometric ^33P-Phosphoryl transfer kinase assay was used to measure EphB4, insulin-like growth factor-I receptor (IGFR-1), and insulin receptor (IRK) activity. Reactions were performed in 384-well white, clear bottom, high-binding microtiter plates (Greiner). Plates were coated with 2 μg/well peptide substrate in a 50 μL volume. […] The coated plates were washed once with 50 μL assay buffer following overnight incubation at room temperature. Test compound and either 5 nmol/L EphB4 (residues E605-E890 of human EphB4 containing a six histidine NH2-terminal tag, expressed in a baculovirus expression system and purified using metal chelate chromatography), 4 nmol/L insulin-like growth factor-I receptor (residues M954-C1367 of human insulin-like growth factor-I receptor, Proqinase GmbH), or 15 nmol/L insulin receptor 1 (residues P948-S1343 of human insulin receptor 1, Proqinase) were combined with [^33P]g-ATP (5 μmol/L, 3.3 μCi/nmol) in a total volume of 20 μL. The reaction mixture was incubated at room temperature for 1.5 to 2.5 h and terminated by aspiration. The microtiter plates were subsequently washed six times with 0.05% Tween-PBS buffer. Scintillation fluid (50 μL/well) was added and incorporated ^33P was measured by liquid scintillation spectrometry using a MicroBeta scintillation counter (Perkin-Elmer). […]"}, "Tie-2": {"biological_target": "Tie-2 (Homo sapiens, UniProt Q02763)", "sequence (Q02763 23-1124)": "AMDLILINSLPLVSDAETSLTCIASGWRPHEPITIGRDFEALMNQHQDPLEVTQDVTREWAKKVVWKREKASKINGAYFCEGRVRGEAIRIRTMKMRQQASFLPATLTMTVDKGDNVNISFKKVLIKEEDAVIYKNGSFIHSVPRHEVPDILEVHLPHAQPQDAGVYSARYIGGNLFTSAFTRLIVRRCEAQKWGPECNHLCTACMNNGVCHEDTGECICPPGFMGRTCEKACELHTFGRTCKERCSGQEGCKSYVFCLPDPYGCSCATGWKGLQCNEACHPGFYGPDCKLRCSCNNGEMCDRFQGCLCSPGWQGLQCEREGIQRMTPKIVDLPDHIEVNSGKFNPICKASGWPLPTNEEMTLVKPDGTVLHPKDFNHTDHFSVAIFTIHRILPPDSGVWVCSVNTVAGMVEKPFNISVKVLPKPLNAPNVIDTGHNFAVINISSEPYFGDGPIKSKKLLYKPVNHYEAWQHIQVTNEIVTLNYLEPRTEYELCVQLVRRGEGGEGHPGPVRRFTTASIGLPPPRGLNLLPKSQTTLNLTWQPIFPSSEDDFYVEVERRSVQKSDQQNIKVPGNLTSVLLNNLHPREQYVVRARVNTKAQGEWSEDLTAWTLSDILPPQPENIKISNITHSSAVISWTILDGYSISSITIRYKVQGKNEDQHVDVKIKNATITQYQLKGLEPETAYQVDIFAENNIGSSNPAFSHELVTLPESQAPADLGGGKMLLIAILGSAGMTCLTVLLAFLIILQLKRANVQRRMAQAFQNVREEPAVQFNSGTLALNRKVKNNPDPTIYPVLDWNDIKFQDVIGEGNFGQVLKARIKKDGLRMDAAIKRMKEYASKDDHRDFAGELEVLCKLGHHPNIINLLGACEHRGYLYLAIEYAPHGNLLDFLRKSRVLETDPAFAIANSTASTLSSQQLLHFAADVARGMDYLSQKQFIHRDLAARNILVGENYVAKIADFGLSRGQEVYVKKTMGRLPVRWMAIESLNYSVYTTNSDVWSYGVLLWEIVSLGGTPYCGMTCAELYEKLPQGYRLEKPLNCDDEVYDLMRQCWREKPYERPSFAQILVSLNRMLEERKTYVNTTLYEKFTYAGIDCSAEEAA", "assay": "Radiometric kinase assay", "type": "biochemical", "procedure": "as §1"}, "[2]": {"tested_on": "MDA-MB-231 xenograft tumors", "assay": "Immunohistochemistry of MDA-MB-231 xenograft tumors (Ki67, CD31)", "type": "in vivo, mouse", "conditions": "100 mg/kg, relative to vehicle", "procedure": "For immunohistochemical analysis of H1975, MDA-MB-231 and other xenografts, tumors were excised after euthanasia and fixed in zinc fixative (BD Biosciences) for 48 h before being processed into paraffin blocks. Serial sections at 5 μm were obtained from the area of largest possible surface for each tumor and stained using standard methods. The following antibodies were used: Ki67 (SP6; Labvision), CD31 (MECA.32; BD Biosciences), pERK^Thr202/Tyr204 (phospho-p44/42 mitogen-activated protein kinase; Cell Signaling Technology), pAKT^Ser473 (Cell Signaling Technology), and pEGFR^Tyr1068 (Cell Signaling Technology). For immunofluorescent staining, sections were then incubated with Alexa 594-conjugated goat anti-rabbit secondary antibody (Invitrogen) and mounted in Fluorescent Mounting Medium (DAKO) containing 4′,6-diamidino-2-phenylindole (Molecular Probes) as a nuclear counterstain. Fluorescent staining was visualized using a Zeiss Axiolmager and digitally captured using a Zeiss high-resolution camera coupled to AxioVision image analysis software. Two to three nonoverlapping representative fields were captured at ×200 or ×400 magnification depending on histologic readout and quantified using the integrated morphometric analysis functions in Metamorph software (Universal Imaging Corp.). Apoptotic cells were detected using terminal deoxynucleotidyl transferase-mediated dUTP nick end labeling in situ cell death detection kit according to the manufacturer's instructions (Roche Diagnostics GmbH).\nCD31-positive tumor vessels, Ki67-positive proliferating cells, and pERK staining in each tumor section were identified and quantified using the integrated morphometric analysis functions in the ACIS automatic cellular imaging system (Clarient, Inc.) and reviewed by a blinded observer. Number of CD31-positive vessels were identified across 5 to 10 randomly chosen fields of equal size at ×100 magnification in viable tumor tissue and calculated as number of vessels per square millimeter for each tumor, averaged for each treatment group, and compared with vehicle-treated controls. Percentage Ki67-positive cells were calculated as the ratio between Ki67-positive cells divided by the total number of cells identified across 5 to 10 randomly chosen fields of equal size in viable tumor tissue. The results for each tumor and treatment group were averaged and compared with vehicle-treated controls. The level of pERK staining was determined as described above and calculated as the ratio of antibody staining divided by the total number of cells identified, averaged for each treatment group, and compared with vehicle-treated controls.\nTumor proliferation was measured by staining for Ki67, which […]. The degree of tumor vascularization was measured by staining with the endothelial cell marker CD31 (Table 20)."}, "[3]": {"biological_target": "EGFR Variant III (pTet-On/Lx-1) (Homo sapiens, UniProt P00533, DELINS30-297G)", "sequence (P00533 with tags, fused parts or gaps DELINS30-297G)": "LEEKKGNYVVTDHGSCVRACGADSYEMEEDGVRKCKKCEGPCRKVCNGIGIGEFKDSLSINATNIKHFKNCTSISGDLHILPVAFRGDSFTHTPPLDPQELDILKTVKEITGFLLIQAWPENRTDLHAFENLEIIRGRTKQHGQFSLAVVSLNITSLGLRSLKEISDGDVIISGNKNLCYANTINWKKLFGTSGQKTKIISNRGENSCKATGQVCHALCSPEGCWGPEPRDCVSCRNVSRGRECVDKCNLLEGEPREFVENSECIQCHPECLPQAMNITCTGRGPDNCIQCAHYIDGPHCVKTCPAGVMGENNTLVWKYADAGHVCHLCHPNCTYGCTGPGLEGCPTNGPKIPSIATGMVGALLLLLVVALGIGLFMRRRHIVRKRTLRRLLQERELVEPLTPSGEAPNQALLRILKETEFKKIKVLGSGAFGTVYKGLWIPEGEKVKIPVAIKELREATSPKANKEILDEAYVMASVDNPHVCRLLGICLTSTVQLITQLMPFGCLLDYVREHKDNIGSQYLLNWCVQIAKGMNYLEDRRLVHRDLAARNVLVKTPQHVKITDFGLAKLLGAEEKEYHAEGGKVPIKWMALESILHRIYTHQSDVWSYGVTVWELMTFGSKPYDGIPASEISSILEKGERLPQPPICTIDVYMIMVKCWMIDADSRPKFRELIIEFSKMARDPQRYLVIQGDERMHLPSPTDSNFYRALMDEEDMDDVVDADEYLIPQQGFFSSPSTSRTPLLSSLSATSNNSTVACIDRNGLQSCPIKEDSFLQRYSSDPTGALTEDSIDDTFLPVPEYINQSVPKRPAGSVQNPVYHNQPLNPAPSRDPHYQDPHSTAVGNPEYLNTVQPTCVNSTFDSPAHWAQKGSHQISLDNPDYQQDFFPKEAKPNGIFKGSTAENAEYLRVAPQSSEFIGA", "assay": "EGFR phosphorylation ELISA in transfected Lx-1 cells"}, "[4]": {"conditions": "7.5 mg/kg/day, PN Day 90, 7.5 mg/kg/day"}, "[5]": {"conditions": "7.5 mg/kg/day, PN Day 90, listed as PRIM-001, 7.5 mg/kg/day"}, "[6]": {"conditions": "15 mg/kg/day, PN Day 90, 15 mg/kg/day"}, "[7]": {"conditions": "15 mg/kg/day, PN Day 90, listed as PRIM-001, 15 mg/kg/day"}}, "note": "Several values for one entry are separate records, joined by “and”; a condition that tells them apart may be missing. Equal entries are not always repeated. Where two headings read alike, the source gives them in different places.", "data": [{"smiles": "COc1cc2c(Nc3ccc(Cl)c(Cl)c3F)ncnc2cc1OC[C@@H]1C[C@@H]2CN(C)C[C@@H]2C1", "note": "[XL-647, N-(3,4-dichloro-2-fluorophenyl)-7-({[(3aR,5r,6aS)-2-methyloctahydrocyclopenta[c]pyrrol-5-yl]methyl}oxy)-6-(methyloxy)quinazolin-4-amine]", "values": [{"measurement": "decrease of BUN level", "setting": "PCK rat; 7.5 mg/kg q.d.", "value": 19.2, "unit": "%"}, {"measurement": "decrease of kidney weight", "setting": "PCK rat; 7.5 mg/kg q.d.", "value": 13.4, "unit": "%"}, {"measurement": "reduction of CT-CI", "setting": "PCK rat; 7.5 mg/kg q.d.", "value": 19.6, "unit": "%"}, {"measurement": "CT-CI", "setting": "PCK rat; 7.5 mg/kg/day", "value": 5.63}, {"measurement": "Creatinine", "setting": "PCK rat; 7.5 mg/kg/day", "value": "0.48 ± 0.09", "unit": "mg/dL"}, {"measurement": "Kidney/Body weight", "setting": "PCK rat; 7.5 mg/kg/day", "value": 1.5, "unit": "%"}, {"measurement": "BUN", "setting": "PCK rat; [4]", "value": "27.50 ± 3.74", "unit": "mg/dL"}, {"measurement": "Kidney Weight", "setting": "PCK rat; [4]", "value": "5.77 ± 0.47", "unit": "g"}, {"measurement": "BUN", "setting": "PCK rat; [5]", "value": "27.50 ± 3.74", "unit": "mg/dL"}, {"measurement": "Kidney Weight", "setting": "PCK rat; [5]", "value": 5.77, "unit": "g"}, {"measurement": "decrease of BUN level", "setting": "PCK rat; 15 mg/kg q.d.", "value": 28.8, "unit": "%"}, {"measurement": "decrease of kidney weight", "setting": "PCK rat; 15 mg/kg q.d.", "value": 26.0, "unit": "%"}, {"measurement": "reduction of CT-CI", "setting": "PCK rat; 15 mg/kg q.d.", "value": 35.7, "unit": "%"}, {"measurement": "CT-CI", "setting": "PCK rat; 15 mg/kg/day", "value": 4.50}, {"measurement": "Creatinine", "setting": "PCK rat; 15 mg/kg/day", "value": "0.46 ± 0.07", "unit": "mg/dL"}, {"measurement": "Kidney/Body weight", "setting": "PCK rat; 15 mg/kg/day", "value": 1.31, "unit": "%"}, {"measurement": "BUN", "setting": "PCK rat; [6]", "value": "24.25 ± 4.3", "unit": "mg/dL"}, {"measurement": "Kidney Weight", "setting": "PCK rat; [6]", "value": "4.93 ± 0.42", "unit": "g"}, {"measurement": "BUN", "setting": "PCK rat; [7]", "value": "24.25 ± 4.30", "unit": "mg/dL"}, {"measurement": "Kidney Weight", "setting": "PCK rat; [7]", "value": 4.93, "unit": "g"}, {"measurement": "inhibition at 10 µM", "setting": "Calcium Channel, Type N", "value": 16.8, "unit": "%"}, {"measurement": "inhibition at 10 µM", "setting": "[1]", "value": 4.59, "unit": "%"}, {"measurement": "IC50", "setting": "EphA2", "value": "6.8 ± 0.8", "unit": "nM"}, {"measurement": "IC50", "setting": "Flt1", "value": "56.5 ± 15.5", "unit": "nM"}, {"measurement": "IC50", "setting": "Tie-2", "value": "54 ± 13.4", "unit": "nM"}, {"measurement": "CD31 (% Reduction)", "setting": "[2]; 3 days", "value": "76% and 76.5%"}, {"measurement": "Ki67 (% Reduction)", "setting": "[2]; 3 days", "value": 9.62, "unit": "%"}, {"measurement": "CD31 (% Reduction)", "setting": "[2]; 5 days", "value": 90.18, "unit": "%"}, {"measurement": "Ki67 (% Reduction)", "setting": "[2]; 5 days", "value": 33.8, "unit": "%"}, {"measurement": "CD31 (% Reduction)", "setting": "[2]; 7 days", "value": 95.7, "unit": "%"}, {"measurement": "Ki67 (% Reduction)", "setting": "[2]; 7 days", "value": "50% and 48.7%"}, {"measurement": "IC50", "setting": "[3]", "value": 74, "unit": "nM"}]}]}
